Assay results from ChEMBL document CHEMBL6182944, “Substrate Specificity of the Organic Cation Transporters MATE1 and MATE2K and Functional Overlap with OCT1 and OCT2” (J Med Chem, 2025).

Key:
MATE2-K = biological target: T1, MATE2-K (Homo sapiens, UniProt Q86VL8); assay: in vitro
T1 sequence (Q86VL8 whole entry): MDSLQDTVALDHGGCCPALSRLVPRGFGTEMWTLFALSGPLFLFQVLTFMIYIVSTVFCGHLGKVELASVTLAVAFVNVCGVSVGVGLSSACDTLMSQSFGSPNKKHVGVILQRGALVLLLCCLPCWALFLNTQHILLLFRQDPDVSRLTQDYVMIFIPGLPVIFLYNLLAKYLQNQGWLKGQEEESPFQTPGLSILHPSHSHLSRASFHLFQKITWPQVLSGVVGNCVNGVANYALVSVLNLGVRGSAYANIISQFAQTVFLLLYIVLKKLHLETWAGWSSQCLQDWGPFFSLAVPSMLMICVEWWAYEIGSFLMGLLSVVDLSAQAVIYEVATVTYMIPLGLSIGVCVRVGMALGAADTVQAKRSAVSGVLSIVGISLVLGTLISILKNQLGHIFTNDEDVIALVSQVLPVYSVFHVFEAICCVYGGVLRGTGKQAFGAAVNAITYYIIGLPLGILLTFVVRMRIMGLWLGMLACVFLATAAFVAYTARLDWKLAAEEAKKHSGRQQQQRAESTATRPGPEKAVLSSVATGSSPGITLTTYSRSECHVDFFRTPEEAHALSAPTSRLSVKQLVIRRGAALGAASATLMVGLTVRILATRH

MATE1 = biological target: T2, MATE1 (Homo sapiens, UniProt Q96FL8); assay: in vitro
T2 sequence (Q96FL8 whole entry): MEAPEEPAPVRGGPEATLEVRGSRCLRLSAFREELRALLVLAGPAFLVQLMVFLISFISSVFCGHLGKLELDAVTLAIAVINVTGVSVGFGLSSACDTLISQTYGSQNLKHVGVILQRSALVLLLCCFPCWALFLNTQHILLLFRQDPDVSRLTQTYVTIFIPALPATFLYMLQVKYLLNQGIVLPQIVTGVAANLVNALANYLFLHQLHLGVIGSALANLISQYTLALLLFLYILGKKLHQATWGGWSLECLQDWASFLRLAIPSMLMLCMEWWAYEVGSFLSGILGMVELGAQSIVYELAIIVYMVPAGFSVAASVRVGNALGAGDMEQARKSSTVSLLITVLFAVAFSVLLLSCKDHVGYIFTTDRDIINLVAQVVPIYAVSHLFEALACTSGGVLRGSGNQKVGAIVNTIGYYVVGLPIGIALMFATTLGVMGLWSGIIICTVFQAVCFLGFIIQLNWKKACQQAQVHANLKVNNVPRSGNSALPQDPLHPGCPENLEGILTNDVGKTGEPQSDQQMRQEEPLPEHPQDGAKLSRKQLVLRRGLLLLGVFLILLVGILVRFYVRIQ

[1] = HEK293 cells expressing MATE2-K

## COc1ccc(CCN)cc1
MATE2-K; [1]
  uptake ratio at 1 min, 2.5 µM: < 2
MATE1; HEK293 cells expressing MATE1
  uptake ratio at 1 min, 2.5 µM: < 2

## COc1cc(CCN)ccc1O
MATE2-K; [1]
  uptake ratio at 1 min, 2.5 µM: < 2
MATE1; HEK293 cells expressing MATE1
  uptake ratio at 1 min, 2.5 µM: > 2

## OC(c1ccccc1)(c1ccccc1)C12CC[N+](CCOCc3ccccc3)(CC1)CC2
MATE2-K; [1]
  uptake ratio at 1 min, 2.5 µM: < 2
MATE1; HEK293 cells expressing MATE1
  uptake ratio at 1 min, 2.5 µM: > 2

## NCCCCCN
MATE2-K; [1]
  uptake ratio at 1 min, 2.5 µM: < 2
MATE1; HEK293 cells expressing MATE1
  uptake ratio at 1 min, 2.5 µM: < 2

## O=C(O[C@H]1C[N+]2(CCCOc3ccccc3)CCC1CC2)C(O)(c1cccs1)c1cccs1
MATE2-K; [1]
  uptake ratio at 1 min, 2.5 µM: < 2
MATE1; HEK293 cells expressing MATE1
  uptake ratio at 1 min, 2.5 µM: > 2

## COc1cc2c(cc1OC)-c1cc3ccc4c(c3c[n+]1CC2)OCO4
MATE2-K; [1]
  uptake ratio at 1 min, 2.5 µM: > 2
MATE1; HEK293 cells expressing MATE1
  uptake ratio at 1 min, 2.5 µM: > 2

## C[C@@H]1O[C@@]2(CS1)CN1CCC2CC1
MATE2-K; [1]
  uptake ratio at 1 min, 2.5 µM: < 2
MATE1; HEK293 cells expressing MATE1
  uptake ratio at 1 min, 2.5 µM: < 2

## COC(=O)[C@@H]1[C@H]2CC[C@@H](C[C@@H]1O)N2C
MATE2-K; [1]
  uptake ratio at 1 min, 2.5 µM: < 2
MATE1; HEK293 cells expressing MATE1
  uptake ratio at 1 min, 2.5 µM: < 2

## CNS(=O)(=O)CCc1ccc2[nH]cc(C3CCN(C)CC3)c2c1
MATE2-K; [1]
  uptake ratio at 1 min, 2.5 µM: > 2
MATE1; HEK293 cells expressing MATE1
  uptake ratio at 1 min, 2.5 µM: > 2

## CC[C@@H](C(N)=O)N1CCCC1=O
MATE2-K; [1]
  uptake ratio at 1 min, 2.5 µM: < 2
MATE1; HEK293 cells expressing MATE1
  uptake ratio at 1 min, 2.5 µM: < 2

## CNC(C)Cc1ccc(OC)cc1 (centres undefined)
MATE2-K; [1]
  uptake ratio at 1 min, 2.5 µM: < 2
MATE1; HEK293 cells expressing MATE1
  uptake ratio at 1 min, 2.5 µM: < 2

## NCCc1cccc(O)c1
MATE2-K; [1]
  uptake ratio at 1 min, 2.5 µM: < 2
MATE1; HEK293 cells expressing MATE1
  uptake ratio at 1 min, 2.5 µM: > 2

## COc1ccc(CCN)cc1O
MATE2-K; [1]
  uptake ratio at 1 min, 2.5 µM: < 2
MATE1; HEK293 cells expressing MATE1
  uptake ratio at 1 min, 2.5 µM: > 2

## CN1CCC[C@@H]1Cc1c[nH]c2ccc(CCS(=O)(=O)c3ccccc3)cc12
MATE2-K; [1]
  uptake ratio at 1 min, 2.5 µM: < 2
MATE1; HEK293 cells expressing MATE1
  uptake ratio at 1 min, 2.5 µM: < 2

## C[N+]1(CCC(C(N)=O)(c2ccccc2)c2ccccc2)CCCCC1
MATE2-K; [1]
  uptake ratio at 1 min, 2.5 µM: < 2
MATE1; HEK293 cells expressing MATE1
  uptake ratio at 1 min, 2.5 µM: > 2

## COc1ccc2[nH]c3c(c2c1)CCNC3
MATE2-K; [1]
  uptake ratio at 1 min, 2.5 µM: < 2
MATE1; HEK293 cells expressing MATE1
  uptake ratio at 1 min, 2.5 µM: < 2

## CCC(Cc1ccc2c(c1)OCO2)NC (centres undefined)
MATE2-K; [1]
  uptake ratio at 1 min, 2.5 µM: < 2
MATE1; HEK293 cells expressing MATE1
  uptake ratio at 1 min, 2.5 µM: < 2

## CNCCc1c[nH]c2ccc(O)cc12
MATE2-K; [1]
  uptake ratio at 1 min, 2.5 µM: > 2
MATE1; HEK293 cells expressing MATE1
  uptake ratio at 1 min, 2.5 µM: > 2

## C1CCN2C[C@H]3C[C@H](CN4CCCC[C@@H]34)[C@H]2C1
MATE2-K; [1]
  uptake ratio at 1 min, 2.5 µM: > 2
MATE1; HEK293 cells expressing MATE1
  uptake ratio at 1 min, 2.5 µM: > 2

## N=C(N)NCCC[C@H](NC(=O)c1ccc2ccccc2c1O)C(=O)N1CCC[C@H]1C(N)=O
MATE2-K; [1]
  uptake ratio at 1 min, 2.5 µM: < 2
MATE1; HEK293 cells expressing MATE1
  uptake ratio at 1 min, 2.5 µM: > 2

## CN(C)C(=N)NCCC[C@H](N)C(=O)O
MATE2-K; [1]
  uptake ratio at 1 min, 2.5 µM: < 2
MATE1; HEK293 cells expressing MATE1
  uptake ratio at 1 min, 2.5 µM: < 2

## CNCCc1ccccc1
MATE2-K; [1]
  uptake ratio at 1 min, 2.5 µM: < 2
MATE1; HEK293 cells expressing MATE1
  uptake ratio at 1 min, 2.5 µM: < 2

## CNCCc1ccc(O)cc1
MATE2-K; [1]
  uptake ratio at 1 min, 2.5 µM: < 2
MATE1; HEK293 cells expressing MATE1
  uptake ratio at 1 min, 2.5 µM: > 2

## Cc1cc(O)cc(C)c1OCC(C)N (centres undefined)
MATE2-K; [1]
  uptake ratio at 1 min, 2.5 µM: < 2
MATE1; HEK293 cells expressing MATE1
  uptake ratio at 1 min, 2.5 µM: < 2

## CNCc1ccc(CSCCN/C(=C/[N+](=O)[O-])NC)o1
MATE2-K; [1]
  uptake ratio at 1 min, 2.5 µM: > 2
MATE1; HEK293 cells expressing MATE1
  uptake ratio at 1 min, 2.5 µM: > 2

## Cc1ncc(C[n+]2cccc(CCO)c2C)c(N)n1
MATE2-K; [1]
  uptake ratio at 1 min, 2.5 µM: > 2
MATE1; HEK293 cells expressing MATE1
  uptake ratio at 1 min, 2.5 µM: > 2

## COc1ccc2[nH]cc(C[C@H](N)C(=O)O)c2c1
MATE2-K; [1]
  uptake ratio at 1 min, 2.5 µM: < 2
MATE1; HEK293 cells expressing MATE1
  uptake ratio at 1 min, 2.5 µM: < 2

## CNCC(O)c1ccc(O)cc1 (centres undefined)
MATE2-K; [1]
  uptake ratio at 1 min, 2.5 µM: < 2
MATE1; HEK293 cells expressing MATE1
  uptake ratio at 1 min, 2.5 µM: > 2

## C[N+]12CCC(CC1)C(OC(=O)C(O)(c1ccccc1)c1ccccc1)C2 (centres undefined)
MATE2-K; [1]
  uptake ratio at 1 min, 2.5 µM: < 2
MATE1; HEK293 cells expressing MATE1
  uptake ratio at 1 min, 2.5 µM: > 2

## C[C@H](NCCc1ccc(O)cc1)[C@H](O)c1ccc(O)cc1
MATE2-K; hek293
  uptake ratio at 1 min, 2.5 µM: > 2
MATE1; hek293
  uptake ratio at 1 min, 2.5 µM: > 2

## C[C@@H]1Cc2c(Cl)cc(C(=O)N[C@@H](Cc3ccccc3)C(=O)O)c(O)c2C(=O)O1 [3R14S-OCHRATOXIN A]
MATE2-K; [1]
  uptake ratio at 1 min, 2.5 µM: < 2
MATE1; HEK293 cells expressing MATE1
  uptake ratio at 1 min, 2.5 µM: > 2

## N=C(N)NC(=N)Nc1ccc(Cl)cc1 [4-CHLOROPHENYLBIGUANIDE]
MATE2-K; [1]
  uptake ratio at 1 min, 2.5 µM: > 2
MATE1; HEK293 cells expressing MATE1
  uptake ratio at 1 min, 2.5 µM: > 2
